IC50 data for 24 compounds are collected here from patent US8471005B2 (Cephalon, Inc., priority 2008, dated 2013).

Where two headings read alike, the source gives them in different places.

One assay concerns the target T1, JAK2 (Homo sapiens, UniProt O60674).
T1 construct: host or cells: baculovirus expression system
Description: Recombinant Human JAK2 Kinase Assay (TRF). The assay is classed as biochemical. To be noted: read-out: JAK2 Potency. The gist of the method:
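Europium-labelled PY100 antibody reported tyrosine phosphorylation of a Neutravidin-captured biotinyl 15-mer peptide by JAK2 (baculovirus-expressed, 15 ng/ml). Conditions: 20 mM HEPES pH 7.2, 0.2 μM ATP, 1 mM MnCl2, 0.1% BSA, DMSO 2.5% final, 20 min at room temperature.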

The next assay has as its target T2, ALK (Homo sapiens, UniProt Q9UM73).
T2 construct: host or cells: baculovirus expression system
Description: ALK Kinase Assay (ELISA/TRF, PLC-γ substrate). In kind it is biochemical. As to conditions: read-out: ALK Potency. In a few lines: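 Read-out is time-resolved fluorescence from a Eu-N1-labeled PT66 antibody that binds phosphorylated PLC-γ, the substrate coated at 10 μg/mL in TBS. ALK at 30 ng/ml starts the reaction, which runs 15 minutes at 37° C.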

Setting [1] is: JAK2 kinase inhibition, 0.2 μM ATP.
Setting [2] is: ALK kinase inhibition, 1 μM ATP.

T2 sequence (Q9UM73 19-1620): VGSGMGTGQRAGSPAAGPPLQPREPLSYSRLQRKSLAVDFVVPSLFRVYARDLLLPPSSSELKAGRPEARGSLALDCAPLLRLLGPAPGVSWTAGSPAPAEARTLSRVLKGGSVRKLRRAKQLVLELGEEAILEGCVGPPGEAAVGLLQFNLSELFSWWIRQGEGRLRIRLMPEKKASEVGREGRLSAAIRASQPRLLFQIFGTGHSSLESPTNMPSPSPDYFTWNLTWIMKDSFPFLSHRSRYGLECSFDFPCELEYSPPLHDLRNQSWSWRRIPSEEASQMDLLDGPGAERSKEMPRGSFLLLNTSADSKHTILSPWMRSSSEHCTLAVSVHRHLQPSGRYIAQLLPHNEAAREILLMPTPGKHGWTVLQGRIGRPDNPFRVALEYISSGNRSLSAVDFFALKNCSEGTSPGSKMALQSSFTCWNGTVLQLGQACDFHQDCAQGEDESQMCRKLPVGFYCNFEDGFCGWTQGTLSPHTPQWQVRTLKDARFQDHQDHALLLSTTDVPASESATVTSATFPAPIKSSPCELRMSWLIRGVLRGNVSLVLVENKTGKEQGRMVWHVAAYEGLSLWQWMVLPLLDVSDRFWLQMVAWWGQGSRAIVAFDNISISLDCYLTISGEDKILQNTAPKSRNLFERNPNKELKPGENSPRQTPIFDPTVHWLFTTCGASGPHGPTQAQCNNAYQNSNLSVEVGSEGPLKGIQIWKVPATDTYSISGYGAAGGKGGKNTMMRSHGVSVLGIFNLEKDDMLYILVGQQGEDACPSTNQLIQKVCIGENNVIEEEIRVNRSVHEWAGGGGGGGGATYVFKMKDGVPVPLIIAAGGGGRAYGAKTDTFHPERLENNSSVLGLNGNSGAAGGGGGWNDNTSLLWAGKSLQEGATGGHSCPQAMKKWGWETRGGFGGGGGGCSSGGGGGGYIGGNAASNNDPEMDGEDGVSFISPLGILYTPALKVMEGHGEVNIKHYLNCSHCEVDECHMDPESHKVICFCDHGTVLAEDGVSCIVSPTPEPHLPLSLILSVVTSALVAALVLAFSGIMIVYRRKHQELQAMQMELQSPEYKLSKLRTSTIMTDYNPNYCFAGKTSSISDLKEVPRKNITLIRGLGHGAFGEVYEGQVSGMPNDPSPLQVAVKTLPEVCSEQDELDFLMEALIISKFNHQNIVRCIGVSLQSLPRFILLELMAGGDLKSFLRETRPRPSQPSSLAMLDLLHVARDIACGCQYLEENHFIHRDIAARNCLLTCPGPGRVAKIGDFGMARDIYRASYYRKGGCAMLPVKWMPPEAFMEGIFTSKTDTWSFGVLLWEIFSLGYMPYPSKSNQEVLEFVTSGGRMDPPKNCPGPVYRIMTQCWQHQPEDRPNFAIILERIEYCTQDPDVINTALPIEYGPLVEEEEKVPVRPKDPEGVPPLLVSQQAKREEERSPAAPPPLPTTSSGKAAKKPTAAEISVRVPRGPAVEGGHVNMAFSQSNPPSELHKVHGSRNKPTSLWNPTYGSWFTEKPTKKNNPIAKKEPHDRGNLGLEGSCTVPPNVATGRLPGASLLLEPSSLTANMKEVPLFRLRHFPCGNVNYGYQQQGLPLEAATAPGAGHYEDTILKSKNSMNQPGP
T1 sequence (O60674 whole entry): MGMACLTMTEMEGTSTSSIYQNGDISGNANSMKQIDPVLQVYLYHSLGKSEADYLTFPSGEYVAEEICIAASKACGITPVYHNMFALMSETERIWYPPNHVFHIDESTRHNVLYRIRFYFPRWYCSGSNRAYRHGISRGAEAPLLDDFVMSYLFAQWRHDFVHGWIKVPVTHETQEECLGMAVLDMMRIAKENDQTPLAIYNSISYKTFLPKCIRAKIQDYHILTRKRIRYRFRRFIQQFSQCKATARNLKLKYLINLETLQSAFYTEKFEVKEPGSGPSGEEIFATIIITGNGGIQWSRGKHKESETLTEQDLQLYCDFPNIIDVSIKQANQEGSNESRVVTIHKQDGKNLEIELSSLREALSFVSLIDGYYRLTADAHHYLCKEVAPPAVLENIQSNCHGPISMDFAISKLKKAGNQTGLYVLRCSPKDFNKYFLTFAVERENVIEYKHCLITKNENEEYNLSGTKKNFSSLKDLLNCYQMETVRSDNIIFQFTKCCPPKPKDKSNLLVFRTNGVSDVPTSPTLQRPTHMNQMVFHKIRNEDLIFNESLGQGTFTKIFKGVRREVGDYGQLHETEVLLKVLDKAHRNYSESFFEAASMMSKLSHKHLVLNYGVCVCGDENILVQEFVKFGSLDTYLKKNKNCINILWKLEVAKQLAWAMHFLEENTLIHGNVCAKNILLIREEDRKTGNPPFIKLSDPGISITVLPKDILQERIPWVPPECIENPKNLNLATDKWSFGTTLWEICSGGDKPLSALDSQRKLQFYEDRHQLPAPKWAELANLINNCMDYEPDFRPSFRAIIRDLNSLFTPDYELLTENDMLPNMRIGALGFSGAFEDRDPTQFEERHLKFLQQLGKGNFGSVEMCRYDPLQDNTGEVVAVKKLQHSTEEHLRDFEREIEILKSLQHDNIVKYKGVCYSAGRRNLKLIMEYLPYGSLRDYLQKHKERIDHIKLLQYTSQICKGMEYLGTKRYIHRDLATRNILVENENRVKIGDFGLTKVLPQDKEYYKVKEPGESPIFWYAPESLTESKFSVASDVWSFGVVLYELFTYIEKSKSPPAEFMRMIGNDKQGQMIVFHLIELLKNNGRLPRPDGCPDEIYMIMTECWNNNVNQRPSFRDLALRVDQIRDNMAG

As to `COc1cc(C2CCN(CC(N)=O)CC2)ccc1Nc1ncc2c(Cl)cc(-c3ccccc3N(C)S(C)(=O)=O)n2n1` [Example 1554, 2-[4-(4-{5-Chloro-7-[2-(methanesulfonyl-methyl-amino)-phenyl]-pyrrolo[2,1-f][1,2,4]triazin-2-ylamino}-3-methoxy-phenyl)-piperidin-1-yl]-acetamide], the results for the IC50 on JAK2 (JAK2 Kinase Inhibition) and at ALK (ALK Kinase Inhibition) were 1 to 10 µM and less than 0.1 µM, respectively.
With `COc1ccc(-c2cc(Cl)c3cnc(Nc4ccc(C5CCN(CC(N)=O)CC5)cc4)nn23)cn1` [Example 1555, 2-(4-{4-[5-Chloro-7-(6-methoxy-pyridin-3-yl)-pyrrolo[2,1-f][1,2,4]triazin-2-ylamino]-phenyl}-piperidin-1-yl)-acetamide], the IC50 at JAK2 (JAK2 Kinase Inhibition) is less than 0.1 µM; at ALK (ALK Kinase Inhibition) it was 0.1 to 1 µM.
Take `CC1(C)C(=O)Nc2ccc(Nc3ncc4ccc(-c5ccccc5N5CCCS5(=O)=O)n4n3)cc21` [Example 1556, 5-({7-[2-(1,1-Dioxido-1,2-thiazolidin-2-yl)phenyl]pyrrolo[2,1-f][1,2,4]triazin-2-yl}amino)-3,3-dimethyl-1,3-dihydro-2H-indol-2-one]: the IC50 at JAK2 (JAK2 Kinase Inhibition) and at ALK (ALK Kinase Inhibition) was less than 0.1 µM each time.
For `CN1CCN(c2cccc(Nc3ncc4ccc(-c5cccc(CO)c5)n4n3)c2)CC1` [Example 1557, (3-{2-[3-(4-Methyl-piperazin-1-yl)-phenylamino]-pyrrolo[2,1-f][1,2,4]triazin-7-yl}-phenyl)-methanol], the IC50 at JAK2 (JAK2 Kinase Inhibition) and at ALK (ALK Kinase Inhibition) was less than 0.1 µM each time.
On to `CN1CCN(c2cccc(Nc3ncc4ccc(-c5cccc(COC(C)(C)C)c5)n4n3)c2)CC1` [Example 1558, [7-(3-tert-Butoxymethyl-phenyl)-pyrrolo[2,1-f][1,2,4]triazin-2-yl]-[3-(4-methyl-piperazin-1-yl)-phenyl]-amine], for which the IC50 on JAK2 (JAK2 Kinase Inhibition) is less than 0.1 µM; at ALK (ALK Kinase Inhibition) it was 0.1 to 1 µM.
Take `CC(=O)Nc1cccc(Nc2ncc3ccc(-c4cccc(COC(C)(C)C)c4)n3n2)c1` [Example 1559, N-{3-[7-(3-tert-Butoxymethyl-phenyl)-pyrrolo[2,1-f][1,2,4]triazin-2-ylamino]-phenyl}-acetamide]: the IC50 is less than 0.1 µM at JAK2 (JAK2 Kinase Inhibition) and 1 to 10 µM on ALK (ALK Kinase Inhibition).
For `CC(C)(C)OCc1cccc(-c2ccc3cnc(Nc4cccc(N5CCOCC5)c4)nn23)c1` [Example 1560, [7-(3-tert-Butoxymethyl-phenyl)-pyrrolo[2,1-f][1,2,4]triazin-2-yl]-(3-morpholin-4-yl-phenyl)-amine], the values for the IC50 on JAK2 (JAK2 Kinase Inhibition) and at ALK (ALK Kinase Inhibition) were less than 0.1 µM and greater than 10 µM, respectively.
For `OCc1cccc(-c2ccc3cnc(Nc4cccc(N5CCOCC5)c4)nn23)c1` [Example 1561, {3-[2-(3-Morpholin-4-yl-phenylamino)-pyrrolo[2,1-f][1,2,4]triazin-7-yl]-phenyl}-methanol] the same measures were less than 0.1 µM and 1 to 10 µM.
For `c1ccc(-c2ccc3cnc(Nc4ccc5nc[nH]c5c4)nn23)nc1` [Example 1562, (3H-Benzimidazol-5-yl)-(7-pyridin-2-yl-pyrrolo[2,1-f][1,2,4]triazin-2-yl)-amine] the same measures were less than 0.1 µM and 1 to 10 µM.
Turning to `CC1(C)C(=O)Nc2cc(Nc3ncc4ccc(-c5ccccn5)n4n3)ccc21` [Example 1563, 3,3-Dimethyl-6-(7-pyridin-2-yl-pyrrolo[2,1-f][1,2,4]triazin-2-ylamino)-1,3-dihydro-indol-2-one], the values for the IC50 on JAK2 (JAK2 Kinase Inhibition) and at ALK (ALK Kinase Inhibition) were less than 0.1 µM and 0.1 to 1 µM, respectively.
With `NC(=O)CN1CCC(c2ccc(Nc3ncc4ccc(-c5cnccn5)n4n3)cc2)CC1` [Example 1564, 2-{4-[4-(7-Pyrazin-2-yl-pyrrolo[2,1-f][1,2,4]triazin-2-ylamino)-phenyl]-piperidin-1-yl}-acetamide], the IC50 is less than 0.1 µM on JAK2 (JAK2 Kinase Inhibition) and 1 to 10 µM on ALK (ALK Kinase Inhibition).
On to `COc1ccccc1-c1ccc2cnc(Nc3cccc(C4(O)CCNCC4)c3)nn12` [Example 1565, 4-{3-[7-(2-Methoxy-phenyl)-pyrrolo[2,1-f][1,2,4]triazin-2-ylamino]-phenyl}-piperidin-4-ol], for which the IC50 on JAK2 (JAK2 Kinase Inhibition) and on ALK (ALK Kinase Inhibition) was less than 0.1 µM each time.
Take `COc1ccc(-c2ccc3cnc(Nc4cccc(C5CNCCN5)c4)nn23)cn1` (stereo not drawn) [Example 1566, [7-(6-Methoxy-pyridin-3-yl)-pyrrolo[2,1-f][1,2,4]triazin-2-yl]-(3-piperazin-2-yl-phenyl)-amine]: the IC50 on JAK2 (JAK2 Kinase Inhibition) was less than 0.1 µM; at ALK (ALK Kinase Inhibition) it was 1 to 10 µM.
Take `CN1CCN(C)C(c2ccc(Nc3ncc4ccc(-c5cccc(S(=O)(=O)NC(C)(C)C)c5)n4n3)cc2)C1` (stereo not drawn) [Example 1567, N-tert-Butyl-3-{2-[4-(1,4-dimethyl-piperazin-2-yl)-phenylamino]-pyrrolo[2,1-f][1,2,4]triazin-7-yl}-benzenesulfonamide]: the IC50 on JAK2 (JAK2 Kinase Inhibition) is less than 0.1 µM; on ALK (ALK Kinase Inhibition), 0.1 to 1 µM.
As for `NC(=O)CN1CCC(c2ccc(Nc3ncc4ccc(-c5ncccn5)n4n3)cc2)CC1` [Example 1568, 2-{4-[4-(7-Pyrimidin-2-yl-pyrrolo[2,1-f][1,2,4]triazin-2-ylamino)-phenyl]-piperidin-1-yl}-acetamide], the IC50 is less than 0.1 µM at JAK2 (JAK2 Kinase Inhibition) and 1 to 10 µM on ALK (ALK Kinase Inhibition).
`CS(=O)(=O)c1ccc(-c2ccc3cnc(Nc4ccc(C5CCNCC5)cc4)nn23)cc1` [Example 1571, [7-(4-Methanesulfonyl-phenyl)-pyrrolo[2,1-f][1,2,4]triazin-2-yl]-(4-piperidin-4-yl-phenyl)-amine]: the IC50 at JAK2 (JAK2 Kinase Inhibition) was less than 0.1 µM; at ALK (ALK Kinase Inhibition), 0.1 to 1 µM.
With `COc1ncccc1-c1ccc2cnc(Nc3ccc4c(c3)CCN(CC(=O)N(C)C)CC4)nn12` [Example 1572], the IC50 on JAK2 (JAK2 Kinase Inhibition) was less than 0.1 µM; on ALK (ALK Kinase Inhibition), 0.1 to 1 µM.
In the case of `CN(C)C(=O)CN1CCc2ccc(Nc3ncc4ccc(Br)n4n3)cc2CC1` [Example 1574], the IC50 is less than 0.1 µM at JAK2 (JAK2 Kinase Inhibition) and 1 to 10 µM at ALK (ALK Kinase Inhibition).
Regarding `COc1cncc(-c2ccc3cnc(Nc4ccc5c(c4)CCN(CC(=O)N(C)C)CC5)nn23)c1` [Example 1575], the IC50 on JAK2 (JAK2 Kinase Inhibition) is less than 0.1 µM; at ALK (ALK Kinase Inhibition), 0.1 to 1 µM.
The matching figures for “(7-Pyridin-3-yl-pyrrolo[2,1-f][1,2,4]triazin-2-yl)-[4-(2-pyrrolidin-1-yl-ethoxy)-phenyl]-amine [Example 126]”: less than 0.1 µM and 0.1 to 1 µM.
In the case of “(S)-1-(4-{4-[7-(4-Chloro-2-methoxy-phenyl)-pyrrolo[2,1-f][1,2,4]triazin-2-ylamino]-3-methoxy-phenyl}-piperazin-1-yl)-propan-2-ol [Example 487]”, the figures for the IC50 on JAK2 (setting [1]) and on ALK (setting [2]) were 0.1 to 1 µM and less than 0.1 µM, respectively.
The matching figures for “(±)-1-Fluoro-3-(4-{3-methoxy-4-[7-(2-methoxy-phenyl)-pyrrolo[2,1-f][1,2,4]triazin-2-ylamino]-phenyl}-piperidin-1-yl)-propan-2-ol [Example 825]”: 0.1 to 1 µM and less than 0.1 µM.
The matching figures for “N-[2-(2-{4-[4-(2-Hydroxy-ethyl)-piperazin-1-yl]-phenylamino}-pyrrolo[2,1-f][1,2,4]triazin-7-yl)-phenyl]-N-methyl-methanesulfonamide [Example 1171]”: less than 0.1 µM and less than 0.1 µM.
Take “N-[2-(2-{4-[4-(2-Hydroxy-ethylamino)-piperidin-1-yl]-2-methoxy-phenylamino}-pyrrolo[2,1-f][1,2,4]triazin-7-yl)-phenyl]-N-methyl-methanesulfonamide [Example 798]”: the IC50 on JAK2 (setting [1]) was 0.1 to 1 µM; on ALK (setting [2]) it was less than 0.1 µM.
